Test results: patent publication US11000033B2, “Ketone or oxime compound, and herbicide” (NISSAN CHEMICAL CORPORATION, priority 2014, dated 2021)

Tests used:
Assay type in all cases: in vivo
Galium spurium [1] = assay: Test Example 5: herbicidal effect by foliage application, plastic box (symbol Q); conditions: 320 g/ha, 3 weeks after application
Outline: (§1)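 Sowing in sterilized diluvial soil, 14 days' greenhouse growth at 25° C. to 30° C., then uniform small-sprayer foliar application of aqueous emulsion dilution; plants scored three weeks afterwards.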

Amaranthus retroflexus = assay: Test Example 4: herbicidal effect by soil treatment (symbol N); conditions: application herbicide amount 320 g/ha
Outline: (§2)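 Seeds were sown in sterilized diluvial soil, covered with about 1.5 cm of soil, and the soil surface was sprayed with a water-diluted emulsion of the compound at a predetermined rate. Plants grew in a greenhouse at 25° C. to 30° C.; effects were scored visually 3 weeks after application.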

Avena fatua [2] = assay: Test Example 4: herbicidal effect by soil treatment (symbol I); conditions: application herbicide amount 320 g/ha
Outline: as §2

Galium spurium [3] = assay: Test Example 4: herbicidal effect by soil treatment (symbol Q); conditions: application herbicide amount 320 g/ha
Outline: as §2

Digitaria ciliaris = assay: Test Example 5: herbicidal effect by foliage application, plastic box (symbol F); conditions: 320 g/ha, 3 weeks after application
Outline: as §1

Veronica persica = assay: Test Example 5: herbicidal effect by foliage application, plastic box (symbol R); conditions: 320 g/ha, 3 weeks after application
Outline: as §1

Apera spica-venti [4] = assay: Test Example 5: herbicidal effect by foliage application, plastic box (symbol L); conditions: 320 g/ha, 3 weeks after application
Outline: as §1

Stellaria media = assay: Test Example 5: herbicidal effect by foliage application, plastic box (symbol P); conditions: 320 g/ha, 3 weeks after application
Outline: as §1

Leptochloa chinensis = assay: Test Example 3: herbicidal effect by foliage application, Wagner pot (symbol D); conditions: application herbicide amount 320 g/ha
Outline: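 Alluvial soil was flooded to a depth of 0.1–0.5 cm, seeded with the weeds and rice, and kept in a greenhouse at 25–30 °C. After 14 days of growth, the foliage received a small-sprayer application of emulsion diluted to the intended rate; injury was rated at 3 weeks.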

Apera spica-venti [5] = assay: Test Example 4: herbicidal effect by soil treatment (symbol L); conditions: application herbicide amount 320 g/ha
Outline: as §2

Setaria viridis = assay: Test Example 4: herbicidal effect by soil treatment (symbol G); conditions: application herbicide amount 320 g/ha
Outline: as §2

rapeseed = assay: Test Example 5: effect on crop by foliage application, plastic box (symbol g); conditions: 320 g/ha, 3 weeks after application
Outline: (§3)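 Crop seed is sown alongside grass and broadleaf weed species in spots in sterilized diluvial soil, then covered to a depth of about 1.5 cm. Plants grow in a greenhouse kept at 25° C. to 30° C.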

Abutilon theophrasti = assay: Test Example 5: herbicidal effect by foliage application, plastic box (symbol M); conditions: 320 g/ha, 3 weeks after application
Outline: as §1

soybean = assay: Test Example 4: effect on crop by soil treatment (symbol d); conditions: application herbicide amount 320 g/ha
Outline: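 Greenhouse culture at 25° C. to 30° C. followed sowing of seed in spots on sterilized diluvial soil with a soil cover close to 1.5 cm thick.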

Avena fatua [6] = assay: Test Example 5: herbicidal effect by foliage application, plastic box (symbol I); conditions: 320 g/ha, 3 weeks after application
Outline: as §1

Scirpus juncoides = assay: Test Example 1: herbicidal activity, application before weed generation in submerged conditions (symbol B); conditions: application herbicide amount 320 g/ha
Outline: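 Scores run 0 to 5 by herbicidal ratio, with 5 meaning 90% or more and 0 meaning 5% or lower, read 3 weeks after treatment. Compound was applied as a diluted emulsion to the water surface of submerged alluvial-soil pots on the day weed seeds were sown.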

[7] = system: Echinochloa crus-galli var. crus-galli; assay: Test Example 5: herbicidal effect by foliage application, plastic box (symbol H); conditions: 320 g/ha, 3 weeks after application
Outline: as §1

Chenopodium album = assay: Test Example 5: herbicidal effect by foliage application, plastic box (symbol O); conditions: 320 g/ha, 3 weeks after application
Outline: as §1

beet = assay: Test Example 5: effect on crop by foliage application, plastic box (symbol f); conditions: 320 g/ha, 3 weeks after application
Outline: as §3

CON=C(C)CC1CC(OC(=O)COc2ccccc2)=C(c2c(C)cc(-c3ccc(Cl)cc3)cc2OC)C1=O (stereo not shown) [6-079]
Q: Galium spurium, herbicidal effect (criteria of Test Example 1) (Galium spurium [1]): 4 (Herbicidal ratio of 70% or higher and lower than 90%)
N: Amaranthus retroflexus, herbicidal effect grade (Amaranthus retroflexus): 4 (Herbicidal ratio of 70% or higher and lower than 90%)
I: Avena fatua, herbicidal effect grade (Avena fatua [2]): 0 (Herbicidal ratio of 5% or lower (almost no effect))
Q: Galium spurium, herbicidal effect grade (Galium spurium [3]): 0 (Herbicidal ratio of 5% or lower (almost no effect))
F: Digitaria ciliaris, herbicidal effect (criteria of Test Example 1) (Digitaria ciliaris): 5 (Herbicidal ratio of 90% or more (almost completely withered))
R: Veronica persica, herbicidal effect (criteria of Test Example 1) (Veronica persica): 3 (Herbicidal ratio of 40% or higher and lower than 70%)
L: Apera spica-venti, herbicidal effect (criteria of Test Example 1) (Apera spica-venti [4]): 5 (Herbicidal ratio of 90% or more (almost completely withered))
P: Stellaria media, herbicidal effect (criteria of Test Example 1) (Stellaria media): 3 (Herbicidal ratio of 40% or higher and lower than 70%)
herbicidal effect on D (Leptochloa chinensis), grade 0-5 (Leptochloa chinensis): 5 (Herbicidal ratio of 90% or more (almost completely withered))
L: Apera spica-venti, herbicidal effect grade (Apera spica-venti [5]): 5 (Herbicidal ratio of 90% or more (almost completely withered))
G: Setaria viridis, herbicidal effect grade (Setaria viridis): 5 (Herbicidal ratio of 90% or more (almost completely withered))
g: rapeseed, effect on crop (criteria of Test Example 1) (rapeseed): 4 (Herbicidal ratio of 70% or higher and lower than 90%)
M: Abutilon theophrasti, herbicidal effect (criteria of Test Example 1) (Abutilon theophrasti): 4 (Herbicidal ratio of 70% or higher and lower than 90%)
d: soybean, effect on crop grade (soybean): 0 (Herbicidal ratio of 5% or lower (almost no effect))
I: Avena fatua, herbicidal effect (criteria of Test Example 1) (Avena fatua [6]): 5 (Herbicidal ratio of 90% or more (almost completely withered))
Herbicidal effect grade, B: Scirpus juncoides (Scirpus juncoides): 0 (Herbicidal ratio of 5% or lower (almost no effect))
H: Echinochloa crus-galli var. crus-galli, herbicidal effect (criteria of Test Example 1) [7]: 5 (Herbicidal ratio of 90% or more (almost completely withered))
O: Chenopodium album, herbicidal effect (criteria of Test Example 1) (Chenopodium album): 3 (Herbicidal ratio of 40% or higher and lower than 70%)
f: beet, effect on crop (criteria of Test Example 1) (beet): 0 (Herbicidal ratio of 5% or lower (almost no effect))

CC(=O)CC1CC(O)=C(c2c(C)cc(OCc3ccccc3)cc2C)C1=O (stereo not shown) [7-018]
Q: Galium spurium, herbicidal effect (criteria of Test Example 1) (Galium spurium [1]): 0 (Herbicidal ratio of 5% or lower (almost no effect))
Herbicidal effect grade, N: Amaranthus retroflexus (Amaranthus retroflexus): 0 (Herbicidal ratio of 5% or lower (almost no effect))
Herbicidal effect grade, I: Avena fatua (Avena fatua [2]): 0 (Herbicidal ratio of 5% or lower (almost no effect))
Herbicidal effect grade, Q: Galium spurium (Galium spurium [3]): 0 (Herbicidal ratio of 5% or lower (almost no effect))
F: Digitaria ciliaris, herbicidal effect (criteria of Test Example 1) (Digitaria ciliaris): 5 (Herbicidal ratio of 90% or more (almost completely withered))
R: Veronica persica, herbicidal effect (criteria of Test Example 1) (Veronica persica): 0 (Herbicidal ratio of 5% or lower (almost no effect))
L: Apera spica-venti, herbicidal effect (criteria of Test Example 1) (Apera spica-venti [4]): 2 (Herbicidal ratio of 20% or higher and lower than 40%)
P: Stellaria media, herbicidal effect (criteria of Test Example 1) (Stellaria media): 0 (Herbicidal ratio of 5% or lower (almost no effect))
herbicidal effect on D (Leptochloa chinensis), grade 0-5 (Leptochloa chinensis): 5 (Herbicidal ratio of 90% or more (almost completely withered))
Herbicidal effect grade, L: Apera spica-venti (Apera spica-venti [5]): 0 (Herbicidal ratio of 5% or lower (almost no effect))
Herbicidal effect grade, G: Setaria viridis (Setaria viridis): 1 (Herbicidal ratio of 5% or higher and lower than 20%)
g: rapeseed, effect on crop (criteria of Test Example 1) (rapeseed): 0 (Herbicidal ratio of 5% or lower (almost no effect))
M: Abutilon theophrasti, herbicidal effect (criteria of Test Example 1) (Abutilon theophrasti): 0 (Herbicidal ratio of 5% or lower (almost no effect))
Effect on crop grade, d: soybean (soybean): 0 (Herbicidal ratio of 5% or lower (almost no effect))
I: Avena fatua, herbicidal effect (criteria of Test Example 1) (Avena fatua [6]): 0 (Herbicidal ratio of 5% or lower (almost no effect))
Herbicidal effect grade, B: Scirpus juncoides (Scirpus juncoides): 0 (Herbicidal ratio of 5% or lower (almost no effect))
H: Echinochloa crus-galli var. crus-galli, herbicidal effect (criteria of Test Example 1) [7]: 4 (Herbicidal ratio of 70% or higher and lower than 90%)
O: Chenopodium album, herbicidal effect (criteria of Test Example 1) (Chenopodium album): 0 (Herbicidal ratio of 5% or lower (almost no effect))
f: beet, effect on crop (criteria of Test Example 1) (beet): 0 (Herbicidal ratio of 5% or lower (almost no effect))

COc1cc(Br)cc(C)c1C1=C(O)CC(CC(C)=O)C1=O (stereo not shown) [7-027, 2-(4-bromo-2-methoxy-6-methylphenyl)-3-hydroxy-5-(2-oxopropyl)cyclopent-2-enone]
Q: Galium spurium, herbicidal effect (criteria of Test Example 1) (Galium spurium [1]): 0 (Herbicidal ratio of 5% or lower (almost no effect))
Herbicidal effect grade, N: Amaranthus retroflexus (Amaranthus retroflexus): 0 (Herbicidal ratio of 5% or lower (almost no effect))
Herbicidal effect grade, I: Avena fatua (Avena fatua [2]): 0 (Herbicidal ratio of 5% or lower (almost no effect))
Herbicidal effect grade, Q: Galium spurium (Galium spurium [3]): 0 (Herbicidal ratio of 5% or lower (almost no effect))
F: Digitaria ciliaris, herbicidal effect (criteria of Test Example 1) (Digitaria ciliaris): 5 (Herbicidal ratio of 90% or more (almost completely withered))
R: Veronica persica, herbicidal effect (criteria of Test Example 1) (Veronica persica): 0 (Herbicidal ratio of 5% or lower (almost no effect))
L: Apera spica-venti, herbicidal effect (criteria of Test Example 1) (Apera spica-venti [4]): 5 (Herbicidal ratio of 90% or more (almost completely withered))
P: Stellaria media, herbicidal effect (criteria of Test Example 1) (Stellaria media): 0 (Herbicidal ratio of 5% or lower (almost no effect))
D (Leptochloa chinensis) herbicidal effect grade (Leptochloa chinensis; Table 24): 5 (Herbicidal ratio of 90% or more (almost completely withered))
Herbicidal effect grade, L: Apera spica-venti (Apera spica-venti [5]): 5 (Herbicidal ratio of 90% or more (almost completely withered))
Herbicidal effect grade, G: Setaria viridis (Setaria viridis): 5 (Herbicidal ratio of 90% or more (almost completely withered))
g: rapeseed, effect on crop (criteria of Test Example 1) (rapeseed): 2 (Herbicidal ratio of 20% or higher and lower than 40%)
M: Abutilon theophrasti, herbicidal effect (criteria of Test Example 1) (Abutilon theophrasti): 0 (Herbicidal ratio of 5% or lower (almost no effect))
Effect on crop grade, d: soybean (soybean): 0 (Herbicidal ratio of 5% or lower (almost no effect))
I: Avena fatua, herbicidal effect (criteria of Test Example 1) (Avena fatua [6]): 5 (Herbicidal ratio of 90% or more (almost completely withered))
Herbicidal effect grade, B: Scirpus juncoides (Scirpus juncoides): 0 (Herbicidal ratio of 5% or lower (almost no effect))
H: Echinochloa crus-galli var. crus-galli, herbicidal effect (criteria of Test Example 1) [7]: 5 (Herbicidal ratio of 90% or more (almost completely withered))
O: Chenopodium album, herbicidal effect (criteria of Test Example 1) (Chenopodium album): 0 (Herbicidal ratio of 5% or lower (almost no effect))
f: beet, effect on crop (criteria of Test Example 1) (beet): 0 (Herbicidal ratio of 5% or lower (almost no effect))

CON=C(C)CC1CC(O)=C(c2c(C)cc(-c3ccccc3)cc2OC)C1=O (stereo not shown) [6-099]
Q: Galium spurium, herbicidal effect (criteria of Test Example 1) (Galium spurium [1]): 5 (Herbicidal ratio of 90% or more (almost completely withered))
Herbicidal effect grade, N: Amaranthus retroflexus (Amaranthus retroflexus): 5 (Herbicidal ratio of 90% or more (almost completely withered))
Herbicidal effect grade, I: Avena fatua (Avena fatua [2]): 5 (Herbicidal ratio of 90% or more (almost completely withered))
Herbicidal effect grade, Q: Galium spurium (Galium spurium [3]): 3 (Herbicidal ratio of 40% or higher and lower than 70%)
F: Digitaria ciliaris, herbicidal effect (criteria of Test Example 1) (Digitaria ciliaris): 5 (Herbicidal ratio of 90% or more (almost completely withered))
R: Veronica persica, herbicidal effect (criteria of Test Example 1) (Veronica persica): 5 (Herbicidal ratio of 90% or more (almost completely withered))
L: Apera spica-venti, herbicidal effect (criteria of Test Example 1) (Apera spica-venti [4]): 5 (Herbicidal ratio of 90% or more (almost completely withered))
P: Stellaria media, herbicidal effect (criteria of Test Example 1) (Stellaria media): 4 (Herbicidal ratio of 70% or higher and lower than 90%)
herbicidal effect on D (Leptochloa chinensis), grade 0-5 (Leptochloa chinensis): 5 (Herbicidal ratio of 90% or more (almost completely withered))
Herbicidal effect grade, L: Apera spica-venti (Apera spica-venti [5]): 5 (Herbicidal ratio of 90% or more (almost completely withered))
Herbicidal effect grade, G: Setaria viridis (Setaria viridis): 5 (Herbicidal ratio of 90% or more (almost completely withered))
g: rapeseed, effect on crop (criteria of Test Example 1) (rapeseed): 5 (Herbicidal ratio of 90% or more (almost completely withered))
M: Abutilon theophrasti, herbicidal effect (criteria of Test Example 1) (Abutilon theophrasti): 3 (Herbicidal ratio of 40% or higher and lower than 70%)
Effect on crop grade, d: soybean (soybean): 0 (Herbicidal ratio of 5% or lower (almost no effect))
I: Avena fatua, herbicidal effect (criteria of Test Example 1) (Avena fatua [6]): 5 (Herbicidal ratio of 90% or more (almost completely withered))
Herbicidal effect grade, B: Scirpus juncoides (Scirpus juncoides): 5 (Herbicidal ratio of 90% or more (almost completely withered))
H: Echinochloa crus-galli var. crus-galli, herbicidal effect (criteria of Test Example 1) [7]: 5 (Herbicidal ratio of 90% or more (almost completely withered))
O: Chenopodium album, herbicidal effect (criteria of Test Example 1) (Chenopodium album): 5 (Herbicidal ratio of 90% or more (almost completely withered))
f: beet, effect on crop (criteria of Test Example 1) (beet): 4 (Herbicidal ratio of 70% or higher and lower than 90%)
